Assays:
Experiment in all cases: relative viability (nuclei count vs DMSO), 5 days (fraction); higher = more cells survive
CX-5461 + Bortezomib = compound: Cc1cnc(CNC(=O)c2c(=O)c3ccc(N4CCCN(C)CC4)nc3n3c2sc2ccccc23)cn1 [CX-5461] + CC(C)C[C@H](NC(=O)[C@H](Cc1ccccc1)NC(=O)c1cnccn1)B(O)O [Bortezomib] (partner 0.002 µM)
Procedure, shortened: (§1)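 For relative viability, nuclei counts in treated wells were divided by those in vehicle wells. Lung cancer cell lines had been pin-tool dosed in 1536-well plates the day after seeding and cultured for 5 days, then fixed and stained in one step (final 0.05% Triton X-100, 1% formaldehyde, 1 ug/ml Hoechst) and imaged at 4×. Doses were one drug alone or a fixed anchor-drug dose plus five library-drug doses (not always all listed) in √10 steps, and values are duplicate-plate medians.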

CX-5461 + Luminespib = compound: Cc1cnc(CNC(=O)c2c(=O)c3ccc(N4CCCN(C)CC4)nc3n3c2sc2ccccc23)cn1 [CX-5461] + CCNC(=O)c1noc(-c2cc(C(C)C)c(O)cc2O)c1-c1ccc(CN2CCOCC2)cc1 [Luminespib] (partner 0.01 µM)
Procedure, shortened: as §1

CX-5461 + Pemetrexed = compound: Cc1cnc(CNC(=O)c2c(=O)c3ccc(N4CCCN(C)CC4)nc3n3c2sc2ccccc23)cn1 [CX-5461] + Nc1nc2[nH]cc(CCc3ccc(C(=O)N[C@@H](CCC(=O)O)C(=O)O)cc3)c2c(=O)[nH]1 [Pemetrexed] (partner 0.2 µM)
Procedure, shortened: as §1

IMD-0354 + Tozasertib = compound: O=C(Nc1cc(C(F)(F)F)cc(C(F)(F)F)c1)c1cc(Cl)ccc1O [IMD-0354] + Cc1cc(Nc2cc(N3CCN(C)CC3)nc(Sc3ccc(NC(=O)C4CC4)cc3)n2)n[nH]1 [Tozasertib] (partner 0.1 µM)
Procedure, shortened: as §1

**Q.** What does the source list for UMC-11?
**A.** relative viability (CX-5461 + Bortezomib; first compound 0.01 µM): 1.01; relative viability (CX-5461 + Bortezomib; first compound 0.03162 µM): 0.707; relative viability (CX-5461 + Bortezomib; first compound 0.1 µM): 0.514; relative viability (CX-5461 + Bortezomib; first compound 0.3162 µM): 0.797; relative viability (CX-5461 + Bortezomib; first compound 1 µM): 0.198; relative viability (CX-5461 + Luminespib; first compound 0.01 µM): 1.01; relative viability (CX-5461 + Luminespib; first compound 0.03162 µM): 0.931; relative viability (CX-5461 + Luminespib; first compound 0.1 µM): 0.965; relative viability (CX-5461 + Luminespib; first compound 0.3162 µM): 0.951; relative viability (CX-5461 + Luminespib; first compound 1 µM): 0.423; relative viability (CX-5461 + Pemetrexed; first compound 0.01 µM): 0.825; relative viability (CX-5461 + Pemetrexed; first compound 0.03162 µM): 0.871; relative viability (CX-5461 + Pemetrexed; first compound 0.1 µM): 0.722; relative viability (CX-5461 + Pemetrexed; first compound 0.3162 µM): 0.763; relative viability (CX-5461 + Pemetrexed; first compound 1 µM): 0.408; relative viability (IMD-0354 + Tozasertib; first compound 0.04 µM): 0.202; relative viability (IMD-0354 + Tozasertib; first compound 0.1265 µM): 0.219; relative viability (IMD-0354 + Tozasertib; first compound 0.4 µM): 0.187; relative viability (IMD-0354 + Tozasertib; first compound 1.265 µM): 0.182; relative viability (IMD-0354 + Tozasertib; first compound 4 µM): 0.203
